Consider 18 compounds from patent USRE30561E, “Vinca alkaloid intermediates” (Eli Lilly and Company, priority 1979, dated 1981).

The subject of one data set is B16. Kind of data set: Transplanted B16 melanoma in mice, prolongation of survival time. The settings on record: IP. Type of data set: in vivo. The protocol:
(§1) The following table--Table 1--gives the results of several experiments in which mice bearing transplanted tumors were treated successfully with a compound of this invention. In the table, column 1 gives the name of the compound; column 2, the transplanted tumor; column 3, the dose level or dose level range and the number of days the dosage was administered; column 4, the route of administration, and column 5, the percent inhibition of tumor growth or percent prolongation of survival time, e.g., B16 and P388. (ROS is an abbreviation for Ridgeway osteogenic sarcoma; GLS for Gardner lymphosarcoma; P1534(J) and P388 are leukemias; CA 755 is an adenocarcinoma; and B16 is a melamoma).

In another data set the test system is P1534(J). Kind of data set: Transplanted P1534(J) leukemia in mice. Format: in vivo. The protocol: as §1
The next data set relates to CA755. Kind of data set: Transplanted CA755 adenocarcinoma in mice. Format: in vivo. The conditions noted are these: for inhibitory activity orally / oral activity: orally. The protocol:
as §1

The subject of data set [1] is GLS (Gardner lymphosarcoma). Kind of data set: Transplanted Gardner lymphosarcoma (GLS) tumor in mice. Format: in vivo. The conditions noted are these: for inhibitory activity orally / oral activity: orally. The protocol:
as §1

Data set [2] concerns ROS (Ridgeway osteogenic sarcoma). Kind of data set: Transplanted Ridgeway osteogenic sarcoma (ROS) in mice. Format: in vivo. The conditions noted are these: for inhibitory activity orally / oral activity: orally. The protocol:
as §1

Data set [3] deals with experimental malignancies. The settings on record: in vivo; cited from earlier work.
A short description of data set [4]: Toxicity at higher oral dose levels in experimental animals. Format: in vivo. The settings on record: orally, above 2 (VLB) and 2-4.5 (vincristine) mg./kg.
The subject of data set [5] is transplanted tumors. Kind of data set: Activity against transplanted tumors in mice in vivo (general). The settings on record: for dose level at which comparable tumor inhibition or prolongation of life is shown: parenterally, intraperitoneal route. The protocol:
as §1

The conditions of data set [6]: humans; cited from earlier work.
A further data set deals with leukemias. The conditions noted are these: human, in vivo; cited from earlier work.
For data set [7], the system named is transplanted tumors. The conditions noted are these: animals; cited from earlier work.

With `CCC1(O)CC2CN(CCc3c([nH]c4ccccc34)C(C(=O)OC)(c3cc4c(cc3OC)N(C)C3C5(OC(=O)N(CCCl)C5=O)C(OC(C)=O)C5(CC)C=CCN6CCC43C65)C2)C1` (stereo not drawn) [VLB 3"-(β-chloroethyl)-3-spiro-5"-oxazolidine-2",4"-dione], the “Percent Prolongation of Survival Time” value in the data set with B16 (0.4-0.6 mg./kg. × 10 days) is recorded as 25-178%. For the same compound, the “indefinite survivors (survived for 60 days till end of trial)” value with B16 (0.4-0.6 mg./kg. × 10 days) came to 5. Further, the “Percent Inhibition or Prolongation of Survival Time” value in the data set on P1534(J) (3.5 mg./kg. × 8 days, PO) is 100%; in the data set on P1534(J) (0.4-0.6 mg./kg. × 10 days, IP), 61-86%. The “Percent Inhibition of tumor growth” value is 53% with CA755 (0.75-1.0 mg./kg. × 10 days, IP); 59-92% in the data set with CA755 (3-5 mg./kg. × 9-10 days, PO); 47% in data set [1] (0.65 mg./kg. × 10 days, IP); 50-74% in data set [1] (0.5-0.6 mg./kg. × 9-10 days, IP); 92-100% in data set [1] (3-4 mg./kg. × 9 days, PO). Further, the inhibitory activity orally (in the data set with CA755 (3-6 mg./kg.); in [1] (3-6 mg./kg.); in data set [2] (3-6 mg./kg.)) was 100% each time.

For the compound `CCC1(O)CN2CCc3c([nH]c4ccccc34)C(C(=O)OC)(c3cc4c(cc3OC)N(C)C3C(O)(C(=O)OC)CC5(CC)C=CCN6CCC43C65)CC(C2)C1O` (stereo not drawn) [4-desacetoxy-3'-hydroxyvinblastine], the “activity in the treatment of experimental malignancies in animals” value (from here on “activity in the treatment”) in data set [3] was “active”.

In the case of `CC[C@]1(O)C[C@@H]2CN(CCc3c([nH]c4ccccc34)[C@@](C(=O)OC)(c3cc4c(cc3OC)N(C)[C@H]3[C@@](O)(C(=O)OC)[C@H](OC(C)=O)[C@]5(CC)C=CCN6CC[C@]43[C@@H]65)C2)C1` [VLB, vincaleukoblastine], in data set [4], the “toxicity at higher levels” value is recorded as “usually are toxic at higher levels”. The “activity by the oral route” value with transplanted tumors [5] is “do not show this degree of oral activity”. The “dose level at which comparable tumor inhibition or prolongation of life is shown” value in the data set on transplanted tumors [5] is 0.4 to 0.45 mg/kg. The oral activity result in the data set on CA755 (2 mg./kg.) was “only marginally active, if at all”; in [1] (2 mg./kg.), “only marginally active, if at all”; in data set [2] (2 mg./kg.), “only marginally active, if at all”. In data set [3], the “activity in the treatment” value was “active”.

For the compound `CC[C@]1(O)C[C@H]2CN(CCc3c([nH]c4ccccc34)[C@@](C(=O)OC)(c3cc4c(cc3OC)N(C=O)[C@H]3[C@@](O)(C(=O)OC)[C@H](OC(C)=O)[C@]5(CC)C=CCN6CC[C@]43[C@@H]65)C2)C1` [vincristine, leurocristine], in [4], the “toxicity at higher levels” value is reported as “usually are toxic at higher levels”. Moreover, the “activity by the oral route” value in the data set with transplanted tumors [5] was “do not show this degree of oral activity”. Further, in the data set with transplanted tumors [5], the “dose level at which comparable tumor inhibition or prolongation of life is shown” value was 0.2 to 0.25 mg/kg. Besides, the oral activity result is listed as “only marginally active, if at all” in the data set on CA755 (2-4.5 mg./kg.); “only marginally active, if at all” in data set [1] (2-4.5 mg./kg.); “only marginally active, if at all” in [2] (2-4.5 mg./kg.). Besides, in data set [3], the “activity in the treatment” value was “active”.

As to `CCC1(O)CC2CN(CCc3c([nH]c4ccccc34)C(C(=O)OC)(c3cc4c(cc3OC)N(C)C3C(O)(C(=O)OC)C(OC(C)=O)C5(CC)C=CCN6CCC43C65)C2)C1` (stereo not drawn) [leurosidine], in [3], the “activity in the treatment” value was “active”.

Consider `CCC1(O)CC2CN(CCc3c([nH]c4ccccc34)C(C(=O)OC)(c3cc4c(cc3OC)N(C)C3C5(OC(=O)N(C)C5=O)C(O)C5(CC)C=CCN6CCC43C65)C2)C1` (stereo not drawn) [4-desacetyl VLB 3"-methyl-3-spiro-5"-oxazolidone-2",4"-dione], for which the “Percent Inhibition of tumor growth” value in [1] (2.5 mg./kg. × 7 days, IP) was found to be 27%.

For the compound `CCC1(O)CC2CN(CCc3c([nH]c4ccccc34)C(C(=O)OC)(c3cc4c(cc3OC)N(C=O)C3C5(OC(=O)N(C)C5=O)C(OC(C)=O)C5(CC)C=CCN6CCC43C65)C2)C1` (stereo not drawn) [vincristine 3"-methyl-3-spiro-5"-oxazolidone-2",4"-dione], in data set [1] (1.0 mg./kg. × 7 days, IP), the “Percent Inhibition of tumor growth” value worked out at 61%.

Turning to `C=CCN1C(=O)OC2(C1=O)C(OC(C)=O)C1(CC)C=CCN3CCC4(c5cc(C6(C(=O)OC)CC7CN(CCc8c6[nH]c6ccccc86)CC(O)(CC)C7)c(OC)cc5N(C)C24)C31` (stereo not drawn) [VLB 3"-allyl-3-spiro-5"-oxazolidine-2",4"-dione], in data set [1] (2.5 mg./kg. × 7 days, IP), the “Percent Inhibition of tumor growth” value was 35%.

As for `CCC12CN3CCc4c([nH]c5ccccc45)C(C(=O)OC)(c4cc5c(cc4OC)N(C=O)C4C(O)(C(=O)OC)C(OC(C)=O)C6(CC)C=CCN7CCC54C76)CC(C3)C1O2` (stereo not drawn) [leuroformine], the “activity in the treatment” value in data set [3] was “active”.

`CCC1(O)CN2CCc3c([nH]c4ccccc34)C(C(=O)OC)(c3cc4c(cc3OC)N(C)C3C(O)(C(=O)OC)C(OC(C)=O)C5(CC)C=CCN6CCC43C65)CC(C2)C1O` (stereo not drawn) [vincadioline]: the “activity in the treatment” value in data set [3] is “active”.

`CC[C@]1(O)C[C@@H]2CN(CCc3c([nH]c4ccccc34)[C@@](C(=O)OC)(c3cc4c(cc3OC)N(C)[C@H]3[C@@](O)(C(N)=O)[C@H](O)[C@]5(CC)C=CCN6CC[C@]43[C@@H]65)C2)C1` [vindesine, 4-desacetyl VLB C-3 carboxamide]: the “neurotoxicity compared with vincristine” value in [6] is “less neurotoxicity than does vincristine”. For the same compound, the “activity in leukemias in humans” value in the data set on leukemias is on record as “active in certain leukemias”.

As for `CCC1(O)CC2CN(CCc3c([nH]c4ccccc34)C(C(=O)OC)(c3cc4c(cc3OC)N(C)C3C(O)(C(=O)NCCS)C(O)C5(CC)C=CCN6CCC43C65)C2)C1` (stereo not drawn) [C-3 N-(β-mercaptoethyl)carboxamide of 4-desacetyl VLB], the anti-tumor activity result with transplanted tumors [7] is “highly effective anti-tumor agent in mice”.

Turning to `CCC1(O)CN2CCc3c([nH]c4ccccc34)C(C(=O)OC)(c3cc4c(cc3OC)N(C)C3C(O)(C(=O)OC)C(OC(C)=O)C5(CC)C=CCN6CCC43C65)CC(O)(C2)C1` (stereo not drawn) [leurocolombine], the “activity in the treatment” value in data set [3] is on record as “active”.

As to `CC[C@]12CN3CCc4c([nH]c5ccccc45)[C@@](C(=O)OC)(c4cc5c(cc4OC)N(C)[C@H]4[C@@](O)(C(=O)OC)[C@H](OC(C)=O)[C@]6(CC)C=CCN7CC[C@]54[C@@H]76)C[C@H](C3)[C@H]1O2` [leurosine], in data set [3], the “activity in the treatment” value is “active”.

As to `CCC1CC2CN(CCc3c([nH]c4ccccc34)C(C(=O)OC)(c3cc4c(cc3OC)N(C)C3C(O)(C(=O)OC)C(OC(C)=O)C5(CC)C=CCN6CCC43C65)C2)C1` (stereo not drawn) [deoxy VLB "A"], the “activity in the treatment” value in data set [3] is “active”.

Consider `CCC1(O)CC2CN(CCc3c([nH]c4ccccc34)C(C(=O)OC)(c3cc4c(cc3OC)N(C)C3C5(OC(=O)N(C)C5=O)C(OC(=O)NC)C5(CC)C=CCN6CCC43C65)C2)C1` (stereo not drawn) [4-desacetyl VLB 3"-methyl-3-spiro-5"-oxazolidine-2", 4"-dione-4-(N-methyl)carbamate], for which the “Percent Inhibition of tumor growth” value in data set [1] (0.1-2.5 mg./kg. × 7-9 days, IP) is on record as 40-100%.

Turning to `CCC1(O)CC2CN(CCc3c([nH]c4ccccc34)C(C(=O)OC)(c3cc4c(cc3OC)N(C)C3C(O)(C(=O)OC)CC5(CC)C=CCN6CCC43C65)C2)C1` (stereo not drawn) [4-desacetoxyvinblastine], the “activity in the treatment” value in [3] is given as “active”.

For the compound `CCC1(O)CC2CN(CCc3c([nH]c4ccccc34)C(C(=O)OC)(c3cc4c(cc3OC)N(C)C3C5(OC(=O)N(C)C5=O)C(OC(C)=O)C5(CC)C=CCN6CCC43C65)C2)C1` (stereo not drawn) [VLB 3"-methyl-3-spiro-5"-oxazolidine-2",4"-dione], the “Percent Prolongation of Survival Time” value in the data set on B16 (4.5 mg./kg. × 10 days) is 49-91%. The “indefinite survivors (survived for 60 days till end of trial)” value in the data set with B16 (0.5-0.6 mg./kg. × 10 days) is 3. Also, the “Percent Inhibition or Prolongation of Survival Time” value in the data set on P1534(J) (3-4 mg./kg. × 8 days, PO) is 100%; in the data set on P1534(J) (.5-.6 mg./kg. × 10 days, IP), 100%. Also, the “Percent Inhibition of tumor growth” value with CA755 (0.5-1.0 mg./kg. × 10 days, IP) is given as 43-100%; in data set [1] (0.6 mg./kg. × 7 days, IP), 100%; in data set [1] (1.25 mg./kg. × 9 days, IP), 100%; in [1] (3-4 mg./kg. × 10 days, PO), 100%; in [1] (3-5 mg./kg. × 10 days, PO), 37-56%; in data set [2] (5-7 mg./kg. × 10 days, PO) it was 38-59%. Besides, the inhibitory activity orally (in the data set on CA755 (6-7 mg./kg.); in data set [1] (6-7 mg./kg.); in data set [2] (6-7 mg./kg.)) was 100% throughout.
